Test results as given in PubChem BioAssay (NCI).
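Following 48 hours of exposure in 96-well plates, responses at five concentrations were used to interpolate endpoints linearly. At the GI50, growth is halved. Definition used: TGI = concentration required for complete inhibition of growth.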

What was measured:
Test in all cases: DTP human tumour cell line panel, 48 h
786-0 renal = tested on: 786-0 renal
A498 renal = tested on: A498 renal
A549 NSCLC = tested on: A549 NSCLC
ACHN renal = tested on: ACHN renal
BT-549 breast = tested on: BT-549 breast
CAKI-1 renal = tested on: CAKI-1 renal
CCRF-CEM leukemia = tested on: CCRF-CEM leukemia
COLO 205 colon = tested on: COLO 205 colon
DU-145 prostate = tested on: DU-145 prostate
EKVX NSCLC = tested on: EKVX NSCLC
HCC-2998 colon = tested on: HCC-2998 colon
HCT-116 colon = tested on: HCT-116 colon
HL-60(TB) leukemia = tested on: HL-60(TB) leukemia
HOP-62 NSCLC = tested on: HOP-62 NSCLC
HOP-92 NSCLC = tested on: HOP-92 NSCLC
HS 578T breast = tested on: HS 578T breast
IGROV1 ovarian = tested on: IGROV1 ovarian
K-562 leukemia = tested on: K-562 leukemia
KM12 colon = tested on: KM12 colon
LOX IMVI melanoma = tested on: LOX IMVI melanoma
M14 melanoma = tested on: M14 melanoma
MCF7 breast = tested on: MCF7 breast
MDA-MB-231 breast = tested on: MDA-MB-231 breast
MDA-MB-435 = tested on: MDA-MB-435
MOLT-4 leukemia = tested on: MOLT-4 leukemia
NCI-H226 lung = tested on: NCI-H226 lung
NCI-H23 lung = tested on: NCI-H23 lung
NCI-H460 lung = tested on: NCI-H460 lung
NCI-H522 lung = tested on: NCI-H522 lung
NCI/ADR-RES ovarian = tested on: NCI/ADR-RES ovarian
OVCAR-3 ovarian = tested on: OVCAR-3 ovarian
OVCAR-4 ovarian = tested on: OVCAR-4 ovarian
OVCAR-5 ovarian = tested on: OVCAR-5 ovarian
OVCAR-8 ovarian = tested on: OVCAR-8 ovarian
PC-3 prostate = tested on: PC-3 prostate
RPMI-8226 leukemia = tested on: RPMI-8226 leukemia
RXF 393 renal = tested on: RXF 393 renal
SF-268 CNS = tested on: SF-268 CNS
SF-295 CNS = tested on: SF-295 CNS
SF-539 CNS = tested on: SF-539 CNS
SK-MEL-2 melanoma = tested on: SK-MEL-2 melanoma
SK-MEL-28 melanoma = tested on: SK-MEL-28 melanoma
SK-MEL-5 melanoma = tested on: SK-MEL-5 melanoma
SK-OV-3 ovarian = tested on: SK-OV-3 ovarian
SN12C renal = tested on: SN12C renal
SNB-19 CNS = tested on: SNB-19 CNS
SNB-75 CNS = tested on: SNB-75 CNS
SR leukemia = tested on: SR leukemia
SW-620 colon = tested on: SW-620 colon
T-47D breast = tested on: T-47D breast
TK-10 renal = tested on: TK-10 renal
UACC-257 melanoma = tested on: UACC-257 melanoma
UACC-62 melanoma = tested on: UACC-62 melanoma
UO-31 renal = tested on: UO-31 renal

Nc1nc(/C=C\c2ccc([N+](=O)[O-])s2)nc(N2CCOCC2)n1
GI50 (786-0 renal): 15.8 µM
TGI (786-0 renal): 30.1 µM
GI50 (A498 renal): 9 µM
TGI (A498 renal): 22.7 µM
GI50 (A549 NSCLC): 16.1 µM
TGI (A549 NSCLC): 32.6 µM
GI50 (ACHN renal): 5.06 µM
TGI (ACHN renal): 17.7 µM
GI50 (BT-549 breast): 9.29 µM
TGI (BT-549 breast): 26.9 µM
GI50 (CAKI-1 renal): 19.7 µM
TGI (CAKI-1 renal): 39.6 µM
GI50 (CCRF-CEM leukemia): 3.33 µM
TGI (CCRF-CEM leukemia): 16.9 µM
GI50 (COLO 205 colon): 2.08 µM
TGI (COLO 205 colon): 5.09 µM
GI50 (DU-145 prostate): 11 µM
TGI (DU-145 prostate): 26.7 µM
GI50 (EKVX NSCLC): 17.8 µM
TGI (EKVX NSCLC): 56.8 µM
GI50 (HCC-2998 colon): 5.18 µM
TGI (HCC-2998 colon): 16.7 µM
GI50 (HCT-116 colon): 2.98 µM
TGI (HCT-116 colon): 10.9 µM
GI50 (HL-60(TB) leukemia): 6.45 µM
TGI (HL-60(TB) leukemia): 26.2 µM
GI50 (HOP-62 NSCLC): 17.8 µM
TGI (HOP-62 NSCLC): 32.9 µM
GI50 (HOP-92 NSCLC): 13.2 µM
TGI (HOP-92 NSCLC): 28.1 µM
GI50 (HS 578T breast): 25.6 µM
TGI (HS 578T breast): > 100 µM
GI50 (IGROV1 ovarian): 4.93 µM
TGI (IGROV1 ovarian): 19.8 µM
GI50 (K-562 leukemia): 7.71 µM
TGI (K-562 leukemia): 24.7 µM
GI50 (KM12 colon): 3.5 µM
TGI (KM12 colon): 16.5 µM
GI50 (LOX IMVI melanoma): 2.12 µM
TGI (LOX IMVI melanoma): 9.52 µM
GI50 (M14 melanoma): 10.5 µM
TGI (M14 melanoma): 24.7 µM
GI50 (MCF7 breast): 5.77 µM
TGI (MCF7 breast): 19.5 µM
GI50 (MDA-MB-231 breast): 5.55 µM
TGI (MDA-MB-231 breast): 19.1 µM
GI50 (MDA-MB-435): 8.19 µM
TGI (MDA-MB-435): 22.8 µM
GI50 (MOLT-4 leukemia): 11.1 µM
TGI (MOLT-4 leukemia): 42.1 µM
GI50 (NCI-H226 lung): 16 µM
TGI (NCI-H226 lung): 46.2 µM
GI50 (NCI-H23 lung): 10.2 µM
TGI (NCI-H23 lung): 22.7 µM
GI50 (NCI-H460 lung): 13.7 µM
TGI (NCI-H460 lung): 26.6 µM
GI50 (NCI-H522 lung): 4.57 µM
TGI (NCI-H522 lung): 17.1 µM
GI50 (NCI/ADR-RES ovarian): 12.7 µM
TGI (NCI/ADR-RES ovarian): 33.3 µM
GI50 (OVCAR-3 ovarian): 15.2 µM
TGI (OVCAR-3 ovarian): 37.5 µM
GI50 (OVCAR-4 ovarian): 2.65 µM
TGI (OVCAR-4 ovarian): 15.3 µM
GI50 (OVCAR-5 ovarian): 22.2 µM
TGI (OVCAR-5 ovarian): 37.2 µM
GI50 (OVCAR-8 ovarian): 13.7 µM
TGI (OVCAR-8 ovarian): > 100 µM
GI50 (PC-3 prostate): 11.5 µM
TGI (PC-3 prostate): 28.1 µM
GI50 (RPMI-8226 leukemia): 3.45 µM
TGI (RPMI-8226 leukemia): 17.6 µM
GI50 (RXF 393 renal): 11.1 µM
TGI (RXF 393 renal): 26.2 µM
GI50 (SF-268 CNS): 8.24 µM
TGI (SF-268 CNS): 22 µM
GI50 (SF-295 CNS): 36.4 µM
TGI (SF-295 CNS): > 100 µM
GI50 (SF-539 CNS): 19.7 µM
TGI (SF-539 CNS): 46.3 µM
GI50 (SK-MEL-2 melanoma): 17.4 µM
TGI (SK-MEL-2 melanoma): 44.7 µM
GI50 (SK-MEL-28 melanoma): 17.9 µM
TGI (SK-MEL-28 melanoma): 38.2 µM
GI50 (SK-MEL-5 melanoma): 5.84 µM
TGI (SK-MEL-5 melanoma): 19.1 µM
GI50 (SK-OV-3 ovarian): 16.3 µM
TGI (SK-OV-3 ovarian): 43 µM
GI50 (SN12C renal): 13 µM
TGI (SN12C renal): 26.4 µM
GI50 (SNB-19 CNS): 23.3 µM
TGI (SNB-19 CNS): 69.5 µM
GI50 (SNB-75 CNS): 13.8 µM
TGI (SNB-75 CNS): 34.2 µM
GI50 (SR leukemia): 5.14 µM
TGI (SR leukemia): 20.3 µM
GI50 (SW-620 colon): 13.9 µM
TGI (SW-620 colon): > 100 µM
GI50 (T-47D breast): 8.98 µM
TGI (T-47D breast): 28.1 µM
GI50 (TK-10 renal): 22 µM
TGI (TK-10 renal): 46.9 µM
GI50 (UACC-257 melanoma): 10.7 µM
TGI (UACC-257 melanoma): 23.1 µM
GI50 (UACC-62 melanoma): 7.08 µM
TGI (UACC-62 melanoma): 19.7 µM
GI50 (UO-31 renal): 14.9 µM
TGI (UO-31 renal): 30.1 µM
